# Measured values published in paper PMC12794055, “High-Throughput Cardiac Hypertrophy Phenotyping Supports Lead Optimization of GRK5 Inhibitors” (ACS Medicinal Chemistry Letters, 2025).
# “Also recorded” adds a separate entry of the source. Where no end group is shown, it is not given here.
# Columns and labels:
# mixed cardiac cells [1] = assay: High-content hypertrophy assay (Hypertrophy Score), PE-LIF-stimulated mixed cardiac cells treated with inhibitors; details: 96 h; for antihypertrophic effect (Hypertrophy Score), in words: comparison at 8 μM
# [2] = system: mixed cardiac cells (CMs and non-CMs); details: for toxicity, in words: nuclei counts of CMs and non-CMs
# mixed cardiac cells [3] = assay: Profiling of hypertrophic stimulants in mixed cardiac cell culture (Hypertrophy Score); details: stimulants at three concentrations
# purified CMs [4] = assay: qPCR of hypertrophic gene expression (Nppa, Nppb) in purified CMs; assay type: cell-based, rat; details: 100 µM PE + 50 ng/ml LIF, 24 h
# GRK2 = details: read-out: GRK2 IC50; biochemical IC50, radiometric kinase inhibition assay; ref 40 (citation marks lost in text); cited from earlier work
# purified CMs [5] = assay: Profiling of hypertrophic stimulants in purified CM culture (Hypertrophy Score)
Compound,"antihypertrophic effect (Hypertrophy Score), in words (mixed cardiac cells [1]; PE-LIF (20 μM, 50 ng/mL))","hypertrophic response (Hypertrophy Score), in words (mixed cardiac cells [3])",further results
Cc1[nH]c(/C=C2\C(=O)Nc3ccc(C(=O)N[C@H](C)c4ccc(F)cc4)cc32)c(C)c1NC(=O)[C@H](O)c1ccco1 [Compound 4b],no effect at any concentration; also recorded: lacked cellular efficacy; also recorded: no antihypertrophic efficacy,–,"reduction in non-CM numbers (antiproliferative activity), in words ([2]; non-CM nuclei counts, 96 h): absent"
transforming growth factor beta [TGFβ],–,little to no effect,–
"CNC[C@H](O)c1cccc(O)c1 [PE, phenylephrine]",–,strongest response,–
Cc1[nH]c(/C=C2\C(=O)Nc3ccc(C(=O)N[C@H](C)c4ccc(F)cc4)cc32)c(C)c1NC(=O)c1ccoc1 [Compound 5b],nor significant antihypertrophic effects; also recorded: surprisingly poor cellular efficacy,–,"toxicity, in words [2]: neither toxicity"
Cc1[nH]c(/C=C2\C(=O)Nc3ccc(C(=O)N[C@H](C)c4ccc(F)cc4)cc32)c(C)c1NC(=O)[C@H]1CCC(=O)O1 [Compound 5k],nor significant antihypertrophic effects; also recorded: lacked cellular efficacy,–,"toxicity, in words [2]: neither toxicity"
"NC[C@H](O)c1ccc(O)c(O)c1 [NE, norepinephrine]",–,weaker response than PE alone,–
"endothelin-1 (CSCSSLMDKECVYFCHLDIIW; not fully specified (bridges); ends and bridges not checked; UniProt P05305 53-73, looked up) [ET-1]",–,robust hypertrophic effects,–
Cc1[nH]c(/C=C2\C(=O)Nc3ccc(C(=O)N[C@H](C)c4ccc(F)cc4)cc32)c(C)c1NC(=O)[C@@H](O)c1ccco1 [Compound 4a],most potent cellular inhibitor; also recorded: clear cellular effects,–,"concentration from which PE-LIF-induced Hypertrophy Score is significantly reduced (mixed cardiac cells [1]; PE-LIF (20 μM, 50 ng/mL)): ≥ 3 µM; IC50 (mixed cardiac cells [1]; Rattus norvegicus, read-out: cellular IC50 (antihypertrophic effects)): 4.7 µM; PE-LIF-induced upregulation of Nppa and Nppb, in words (purified CMs [4]): prevented PE-LIF-induced upregulation of Nppa and Nppb"
Cc1nc2c(C(=O)Nc3c(C)[nH]c(/C=C4\C(=O)Nc5ccc(C(=O)N[C@H](C)c6ccc(F)cc6)cc54)c3C)cccc2[nH]1 [Compound 5m],partially reduced the Hypertrophy Score,–,–
Cc1[nH]c(/C=C2\C(=O)Nc3ccc(C(=O)N[C@H](C)c4ccc(F)cc4)cc32)c(C)c1NC(=O)C(=O)c1ccco1 [Compound 3],partially reduced the Hypertrophy Score; also recorded: surprisingly poor cellular efficacy,–,"IC50 (GRK2): […]; reduction in non-CM numbers (antiproliferative activity), in words ([2]; non-CM nuclei counts, 96 h): most pronounced"
Cc1nc(C(=O)Nc2c(C)[nH]c(/C=C3\C(=O)Nc4ccc(C(=O)N[C@H](C)c5ccc(F)cc5)cc43)c2C)c(C)s1 [Compound 5d],appeared to reduce hypertrophy,–,"concentration at which CMs are affected ([2]; CM nuclei counts, 96 h): ≥ 2000 nM; concentration from which non-CM numbers are reduced ([2]; non-CM nuclei counts, 96 h): ≥ 500 nM; toxicity, in words [2]: excluded due to toxicity"
leukemia inhibitory factor [LIF],–,little to no effect,"hypertrophic response (Hypertrophy Score), in words (purified CMs [5]): significantly increased the Hypertrophy Score"
Cc1[nH]c(/C=C2\C(=O)Nc3ccc(C(=O)N[C@H](C)c4ccc(F)cc4)cc32)c(C)c1NC(=O)C1CCOCC1 [Compound 5i],partially reduced the Hypertrophy Score,–,–
